Series [1] concerns BaF3. In words: Inhibition of TrkA phosphorylation in mouse BaF3 cells expressing CD74 fused TrkA incubated for 6 hrs by Western blot analysis. Type of series: cell-based. The conditions noted are these: dose 3-300 nM.
Series [2] has as its system BaF3. In words: Inhibition of ERK phosphorylation in mouse BaF3 cells expressing TEL fused TrkC G623R mutant incubated for 6 hrs by Western blot analysis. It counts as cell-based. Particulars: dose 3-300 nM. (Immunoblotting shows a protein as a band on a membrane.)
Series [3] relates to BaF3. In words: Induction of apoptosis on mouse BaF3 cells expressing TEL fused TrkC G623R mutant incubated for 24 hrs by Annexin V-FITC/propidium iodide staining based flow cytometric analysis. Particulars: dose 3-1000 nM. Type of series: functional, cell-based. In general terms: A flow cytometer gives signals particle by particle.
The target of series [4] is Epithelial discoidin domain-containing receptor 1 (Homo sapiens, UniProt Q08345). Description: Inhibition of human DDR1 in presence of ATP by radiometric assay.
Epithelial discoidin domain-containing receptor 1, sequence (Q08345 whole entry, the tested form may be a part): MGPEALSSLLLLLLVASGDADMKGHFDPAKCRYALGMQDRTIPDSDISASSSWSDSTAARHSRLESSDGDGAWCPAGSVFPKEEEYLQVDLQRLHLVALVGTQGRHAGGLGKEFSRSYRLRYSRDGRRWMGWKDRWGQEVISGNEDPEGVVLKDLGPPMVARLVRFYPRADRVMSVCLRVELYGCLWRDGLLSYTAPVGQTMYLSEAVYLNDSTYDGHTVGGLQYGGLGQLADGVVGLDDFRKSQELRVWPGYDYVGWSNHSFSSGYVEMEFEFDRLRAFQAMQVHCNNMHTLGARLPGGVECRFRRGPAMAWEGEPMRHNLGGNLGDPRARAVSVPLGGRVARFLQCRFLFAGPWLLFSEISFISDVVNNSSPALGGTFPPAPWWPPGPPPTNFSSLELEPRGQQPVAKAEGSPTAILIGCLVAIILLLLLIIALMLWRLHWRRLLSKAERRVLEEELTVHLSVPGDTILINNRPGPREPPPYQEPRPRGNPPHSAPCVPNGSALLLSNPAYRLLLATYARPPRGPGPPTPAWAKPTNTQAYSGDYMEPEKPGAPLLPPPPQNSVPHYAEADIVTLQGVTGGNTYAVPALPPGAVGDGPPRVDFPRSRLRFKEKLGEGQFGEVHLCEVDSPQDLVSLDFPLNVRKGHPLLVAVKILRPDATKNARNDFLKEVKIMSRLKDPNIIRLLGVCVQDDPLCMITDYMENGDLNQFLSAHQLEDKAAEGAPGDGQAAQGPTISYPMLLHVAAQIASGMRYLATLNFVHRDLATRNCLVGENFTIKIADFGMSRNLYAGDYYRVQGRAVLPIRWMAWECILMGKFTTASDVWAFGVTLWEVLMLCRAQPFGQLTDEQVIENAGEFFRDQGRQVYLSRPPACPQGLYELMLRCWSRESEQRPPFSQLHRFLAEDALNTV
Series [5] relates to BaF3. In words: Antitumour activity against mouse BaF3 cells expressing TEL fused TrkA allografted in NOD-SCID mouse assessed as reduction in tumor volume at 20 mg/kg, iv and measured every 2 or 3 days for 10 days. Particulars: time 10.0 day. It counts as functional, organism-based.
A short description of series [6]: Half life in Sprague-Dawley rat at 10 mg/kg, po measured up to 24 hrs by HPLC method. Type of series: ADME, organism-based. The conditions noted are these: in vivo.
Series [7] in a line: Clearance in Sprague-Dawley rat at 10 mg/kg, po measured up to 24 hrs by HPLC method. Type of series: ADME, organism-based. The conditions noted are these: in vivo.
Series [8] has as its system BaF3. Description: Antitumour activity against mouse BaF3 cells expressing TEL fused TrkA allografted in NOD-SCID mouse assessed as reduction in tumor volume administered intravenously once daily for 10 days and measured every 2 or 3 days. It counts as functional. The conditions noted are these: dose 5-20 mg/kg, time 10.0 day.
Series [9] concerns BaF3. Description: Antitumour activity against larotrectinib-resistant mouse BaF3 cells expressing TEL fused TrkC G623R mutant allografted in NOD-SCID mouse assessed as reduction in tumor growth at 10 mg/kg/day, iv qd measured every 2 or 3 days for 10 days. Type of series: functional, organism-based. The conditions noted are these: time 10.0 day.
Series [10] can be described thus: Toxicity in NOD-SCID mouse allografted with larotrectinib-resistant mouse BaF3 cells expressing TEL fused TrkC G623R mutant assessed as body weight loss at 5 to 20 mg/kg, iv measured every 2 or 3 days for 10 days. It counts as organism-based. Particulars: in vivo, 240 h, dose 5-20 mg/kg, time 10 day.
Series [11] in a line: Toxicity in NOD-SCID mouse assessed as histological changes in liver at 5 to 20 mg/kg, iv measured after 10 days by H and E staining based microscopic analysis. Type of series: organism-based. The conditions noted are these: in vivo, 240 h, dose 5-20 mg/kg, time 10 day.
The nature of series [12]: Toxicity in NOD-SCID mouse assessed as histological changes in lung at 5 to 20 mg/kg, iv measured after 10 days by H and E staining based microscopic analysis. Particulars: in vivo, 240 h, dose 5-20 mg/kg, time 10 day. It counts as organism-based.
The subject of series [13] is BaF3. Description: In vivo inhibition of Trk signalling in NOD-SCID mouse allografted with mouse BaF3 cells expressing TEL fused TrkC G623R mutant assessed as reduction in p-Trk level at 5 to 20 mg/kg, iv qd measured after 10 days by IHC staining based analysis. Type of series: functional, organism-based. Particulars: dose 5-20 mg/kg, time 10.0 day.
The test system of series [14] is BaF3. In words: Downregulation of TrkA protein expression in mouse BaF3 cells expressing TEL fused TrkA incubated for 6 hrs by Western blot analysis. Type of series: functional, cell-based.
Series [15] concerns BaF3. Description: cells. Particulars: Mus musculus, BaF3, 72 h.
Description: Cytotoxicity against mouse BaF3 cells expressing TEL fused TrkA assessed as inhibition of cell growth incubated for 3 days by CCK-8 assay
The test system of series [16] is BaF3. Description: cells. The conditions noted are these: Mus musculus, BaF3, 72 h. This is another data set of the same source.
Description: Cytotoxicity against mouse BaF3 cells expressing TEL fused TrkC assessed as inhibition of cell growth incubated for 3 days by CCK-8 assay
Series [17] relates to BaF3. In words: cells. Particulars: Mus musculus, BaF3, 72 h. The source holds these as a separate data set.
The subject of series [18] is BaF3. Description: cells. Particulars: Mus musculus, BaF3, 72 h. The source holds these as a separate data set.
Description: Cytotoxicity against mouse BaF3 cells expressing TEL fused TrkC G623R assessed as inhibition of cell growth incubated for 3 days by CCK-8 assay
The test system of series [19] is BaF3. In words: cells. The conditions noted are these: Mus musculus, BaF3, 72 h. The source holds these as a separate data set.
Description: Cytotoxicity against mouse BaF3 cells expressing TEL fused TrkC G696C assessed as inhibition of cell growth incubated for 3 days by CCK-8 assay

Active and inactive are the calls of the source.

For orientation: IC50 means the midpoint of a concentration-inhibition curve. For orientation: half-life means the time needed for the level to fall by half in the phase considered. What is called CL/F is clearance divided by bioavailability, as obtained after extravascular dosing. On to `Cc1cc(NC(=O)Nc2cc(C(C)(C)C)nn2-c2ccc(Cl)cc2)ccc1Nc1ncnc2c1OC(C)(C)C(=O)N2`, for which the inhibition result in the series with BaF3 [1], with BaF3 [2] and in the series on BaF3 [13] was “Active” throughout. Also, the Activity result in the series with BaF3 [3] is “Dose-Dependent Effect”; in the series with BaF3 [8] it was “Dose-Dependent Effect”; in [10], “Non-Toxic”; in series [11], “Non-Toxic”; in series [12] it was “Non-Toxic”. The IC50 was 126 nM in series [4]; 1 nM in the series on BaF3 [15]; 13 nM with BaF3 [16]; 1 nM in the series on BaF3 [17]; 15 nM in the series on BaF3 [18]; 2 nM in the series on BaF3 [19]. In addition, the outcome in the series with BaF3 [5], with BaF3 [9] and in the series on BaF3 [14] was Active. The compound also gave a half-life in [6] of 1.78 h. The same compound showed an apparent clearance CL/F in series [7] of 11.8 mL/min/kg.
